In patent US4372890A, “Platinum compound” (Kureha Kagaku Kogyo Kabushiki Kaisha, priority 1980, dated 1983):

Assays:
[1] = tested on: mouse P-388 leukemia; assay: Antitumor effect to mouse P-388 leukemia (ILS); assay type: in vivo; details: 5 mg/kg, intraperitoneal, once a day for 5 days, P-388 in CDF1 mice
Description: Antitumor effects of the products to mouse P-388 leukemia were tested.
(§1) P-388 ascites cells obtained by a successive cultivation in DBA/2 mice were transplanted by the route of intraperitoneal injection into CDF1 mice (10 mice in one group) at a rate of 1×10^6 /mouse. From 24 hours after the transplantation, a solution of each compound in physiological saline solution was injected once a day for 5 days as 5 times by the route of intraperitoneal injection. Each average survival days (T) of the administered group and each average survival days (C) of control group were measured to calculate each percentage increase in life span (ILS(%))

[2] = Weight decrease and kidney cell damage in the mice of the P-388 test; assay type: in vivo, CDF1 mice; details: 5 mg/kg intraperitoneal for 5 days
Description: as §1

[3] = Solubility of the products of the Examples in water and organic solvents; assay type: physicochemical

| SMILES | ILS (percentage increase in life span, T/C×100) [1] | kidney cell damage [2] | weight decrease [2] | solubility in benzene and chloroform ([3]; benzene and chloroform) | solubility in ethanol ([3]; ethanol) | solubility in methanol ([3]; methanol) | solubility in water ([3]; water) |
| --- | --- | --- | --- | --- | --- | --- | --- |
| N.N.[Cl][Pt][Cl] [Compound No. 5, cis-[diaminedichloroplatinum (II)]] | 180% | kidney cell damage were observed for all of 10 mice | remarkable weight decrease | – | – | – | – |
| COC(=O)C(N)C(N)C(=O)OC (stereo not shown) [Example 1] | – | – | – | insoluble | soluble | soluble | soluble |
